Entries after “also recorded” stand apart in the source; their conditions may differ.
Test system: 3T3-L1 preadipocytes
Test: Adipocyte differentiation / adipogenesis (Oil red-O staining, leptin and resistin ELISA)
Assay type: cell-based, murine
Experimental: 3T3-L1 preadipocytes are stimulated to differentiate to a rounded phenotype and accumulate lipids in the form of lipid droplets when treated with dexamethasone, isobutylmethylxanthine (IBMX), and insulin [54]. The 3T3-L1 cells are primed for differentiation by the incubation with IBMX and dexamethasone, and in some cells insulin, for 24 hrs, then, insulin is withdrawn and replaced with various concentrations of NPY (FIG. 5).
ELISA: NPY ELISA system are purchased from Penninsula Laboratories, bFGF, VEGF and mouse leptin ELISA kits from R&D systems, mouse adiponectin ELISA kit from Linco Research and catecholamine detection system—3CAT EIA from Diagnostic Systems Laboratories. The assays are performed according to the manufacturers' procedures.
Oil Red O staining: Oil Red O solution (0.36% Oil Red O solution in 60% isopropanol) is used to stain lipid droplets in mature adipocytes and paraffin embedded tissues (Chemicon Adipogenesis Assay kit).
1. Cell culture: 3T3-L1 preadipocyte cells, (gift from Dr. Lane,^34) were cultured in DMEM high glucose media with glutamine, 10% calf sera (Gemini Bioproducts), d-Biotin (8 μg/ml) and Pantothenate (8 μg/ml) (Sigma). SK-N-BE(2) neuroblastoma cells (ATCC) were cultured in EMEM/F12K with 10% fetal bovine sera (FBS). HMVEC endothelial cells (Cambrex) were cultured in endothelial cell growth media (Cambrex). All media was supplemented with 100 units/ml penicillin, 100 μg/ml streptomycin and […] amphotericin. 2. Proliferation assay: Cells were plated onto 96-well dishes, growth-arrested in serum-free media for 24 h, and then were treated with the desired factors for 24 h in the culture media supplemented with 0.25% FBS; 4 hr after treatment 0.5 μCi [^3H] thymidine was added to each well. After 24 h, cells were harvested in a 96-well harvester (Tomtec) and counted in a Betaplate Liquid Scintillation Counter (Wallac). 3. Co-culture: For mitogenic assay and expression studies, co-culture was performed in a Costar Transwell system. Cells were plated on 6-well plates or inserts with 0.4 μm Polyester membranes. At 30% confluence, the inserts were combined with wells containing other cells. Co-culture of neuroblastomas with endothelial cells (EC) were carried out in EC media and preadipocytes in preadipocyte growth media. After the respective treatment, the cells growing on the plates were harvested for RNA isolation. For the mitogenic assay, cells were first growth-arrested in serum-free media for 24 hr, then the inserts placed into the plates and cells treated with desired factors in 0.25% FBS. After 48 hr, the cells were counted with a Beckman Coulter Counter. In both co-culture models, media was collected for Leptin (R&D Systems), Resistin (R&D Systems), and NPY (Bachem) ELISA. 4. Real-time RT-PCR: RNA was isolated using Tri Reagent (Sigma) and cDNA synthesized by iScript cDNA synthesis kit (BioRad). ICycler iQ Detection System (BioRad) was used to perform Real Time PCR. cDNA was amplified for 40 cycles using TaqMan PCR Reagent Kit and pre-designed primers and fluorescein-labeled probes from Applied Biosystems, as previously described^16, according to the manufacturer's procedure. The results were analyzed using software provided by BioRad and expression levels calculated by the comparative CT method using β-actin as an endogenous reference gene, according to the Applied Biosystems' ABI PRISM 7700 User Bulletin #2. 5. TUNEL: TUNEL reaction was performed using In Situ Cell Detection Kit (Roche Diagnostic) and signal converted to visible light using AP-converter. The density of TUNEL positive cells will be measured using NIH ImageJ software (using a plugin written by Wayne Rasband). 6. ELISA: ELISA kits for: NPY (Bachem Laboratories), mouse Leptin, Corticosterone, and Resistin (R&D systems), rat/mouse Insulin and mouse Adiponectin (Linco Research), and mouse Osteocalcin (Biomedical Technologies, Inc.) were used. The assays were performed according to the manufacturers' procedures. 7. […]

| Compound | block of NPY-induced leptin and resistin secretion and lipid filling (Y2R antagonist) | adipogenesis in cells not originally primed by insulin (NPY by itself) | leptin secretion (differentiated 3T3-L1 adipocytes) | differentiation into adipocytes (adipogenesis) (insulin preconditioned / primed 3T3-L1 cells, NPY 1×10-14 to 1×10^-8 M) | resistin secretion (preadipocytes primed for differentiation) | lipid deposition / lipid filling (Oil red-O staining) (primed 3T3-L1 cells, insulin replaced with NPY) |
| --- | --- | --- | --- | --- | --- | --- |
| N=C(N)NCCC[C@H](NC(=O)CC1(CC(=O)N2CCN(C3c4ccccc4NC(=O)c4ccccc43)CC2)CCCC1)C(=O)NCCn1c(=O)n(-c2ccccc2)n(-c2ccccc2)c1=O (stereo partly drawn) [BIIE0246] | blocked |  |  |  |  |  |
| neuropeptide Y [NPY] |  | unable to stimulate adipogenesis | increases leptin secretion; also recorded: increased | stimulated differentiation into adipocytes; also recorded: stimulating adipogenesis | increased | markedly increased |

From patent publication US20090317376A1, “Compositions And Methods For Lipo Modeling” (Georgetown University MEDICAL SCHOOL, priority 2005, published 2009)
